In paper PMC12265377, “CC48 a new CB2R agonist/FAAH inhibitor dual drug blocks gastric cancer progression and overcomes paclitaxel resistance” (Journal of Experimental & Clinical Cancer Research : CR, 2025):
Like-named read-outs stand apart in the source and are kept apart here.

Legend:
CB2R = target: CB2R; design: method as in PMID 7776818, PMID 36542836, PMID 36657299, PMID 20393015; conditions: ± SEM; read-out: CB2R affinity Ki; cited from earlier work
HGC27-R cells = assay: Muse caspase 3/7 activation assay; assay type: cell-based, human; conditions: 48 h
Text: (§1) After the specified drug treatments, the cells were processed using the Muse Annexin V/Dead Cell Assay Kit (Luminex Corporation, Austin, USA) for quantitative analysis of live, early/ late apoptotic, and dead cells on a Muse Cell Analyzer. Briefly, the assay utilized Annexin V to detect phosphatidylserine on the external membrane of apoptotic cells. The fluorescent signal emitted by dye-conjugated antibodies was detected by flow cytometry technology (Muse Cell Analyzer, Luminex Corporation, Austin, USA). 7-Amino-Actinomycin D (7-AAD) dead cell marker was also used. The cells were then analyzed according to the user’s guide. […] After 48 h treatments the cells were processed according to the user’s guide and analyzed with the Muse caspase-3/7 kit (Millipore).The assay provides the relative percentage of living, early/late apoptotic or dead cells.

HGC27-S cells [1] = assay: Muse caspase 3/7 activation assay; assay type: cell-based, human; conditions: 48 h
Text: as §1

NCI-N87 cells = assay: Muse caspase 3/7 activation assay; assay type: cell-based, human
Text: as §1

HGC27-S cells [2] = assay: Muse Ki67 cell proliferation assay; assay type: cell-based, human
Text: After the specified drug treatments, the cells were processed with the Muse Ki67 cell proliferation kit, which identified actively proliferating cells based on the expression of Ki67, a nuclear protein present in the active phases of the cell cycle (G1, S, G2, and M phases) and absent in the resting G0 phase. The Muse Ki67 Proliferation Assay was used with the Guava Muse Cell Analyzer according to the manufacturer’s instructions (Luminex Corporation, Austin, USA). Briefly, the cells were stained after fixation and permeabilization procedures, using Hu Ki67 or Hu IgG1 control fluorochrome-conjugated antibodies to distinguish Ki67(+) or Ki67(-) cells, respectively. The software provided the percentage of both Ki67(+) and Ki67(-) cells.

P-gp = P-gp (Homo sapiens, UniProt P08183); assay: P-gp interaction assay (Calcein-AM, MDCK-MDR1 cells)
Procedure: This experiment was carried out as described by Contino et al. with minor modifications. MDCK-MDR1 cells, stably overexpressing P-gp, (30.000 cells per well) were seeded into black CulturePlate96/wells plate with 100 µL medium and allowed to become confluent overnight. Each test compound solubilized in culture medium was added to cell monolayers, reaching the tested final concentrations (ranging from 0.1 to 100 µM). Each 96/wells plate was incubated at 37 °C for 30 min. […] Each well was washed 3 times with ice cold PBS. […] In these experimental conditions, Calcein cell accumulation in the absence and presence of tested compounds was evaluated and the fluorescence basal level was estimated in untreated cells. In treated wells the increase of fluorescence compared to basal level was measured. EC50 values were determined on the fluorescence increase percentage versus log [dose].

HGC27-S cells [3] = assay: Western blot of proliferation pathway proteins; assay type: cell-based, human; conditions: 48 h, 6 µM AM630, 10 µM agonists
Procedure: Western Blotting analysis was performed as previously described in both HGC27-S/R and AGS cells. Briefly, for each experimental condition the cells were lysed in ice-cold lysis buffer (50 mM Tris, 10 mM EDTA, 1% v/v Triton-X100), supplemented with the protease/phosphatase inhibitor cocktail set (Merck KGaA, Darmstadt, Germany), incubated on ice for 15 min and centrifuged at 13,000 × g for 15 min at 4 °C. Protein extracts were quantified by Micro BCA™ Protein Assay Kit (Thermo Fisher Scientific Inc., MA USA) and 40 µg of total protein extract was loaded on SDS-PAGE and immunoblotted with the following antibodies: CB1R and CB2R (1:500, rabbit polyclonal, Abcam, Cambridge, UK), P-TSC2 (Ser939) and TSC2 (1:1000Cell Signaling, Beverly, MA, USA), PI3K (1:1000Cell Signaling, Beverly, MA, USA), P-P70 (Thr389) and P70 (1:1000Cell Signaling, Beverly, MA, USA), P-Akt (Ser473 Thr308) and Akt (1:1000Cell Signaling, Beverly, MA, USA), P-S6 (Ser235/236) and S6 (1:1000Cell Signaling, Beverly, MA, USA), 4EBP1(1:1000Cell Signaling, Beverly, MA, USA), P-ERK(Thr202/Tyr204) and ERK (1:1000Cell Signaling, Beverly, MA, USA), PPRγ (1:1000Cell Signaling, Beverly, MA, USA), Phospho-SAPK/JNK (Thr183/Tyr185) and JNK2 (1:1000 Cell Signaling, Beverly, MA, USA), Phospho-c-Jun (Ser63) and c-Jun (1:1000 Cell Signaling, Beverly, MA, USA), caspase 3/7 (1:1000 Cell Signaling, Beverly, MA, USA), Phospho-βcatenin (Ser675) and βcatenin (1:1000 Cell Signaling, Beverly, MA, USA), vimentin (1:1000Cell Signaling, Beverly, MA, USA), P-cofillin (Ser3) and cofillin (1:1000Cell Signaling, Beverly, MA, USA), actin (1:4000Cell Signaling, Beverly, MA, USA). Subsequently, the membranes were incubated with the corresponding horseradish peroxidase (HRP)-conjugated secondary antibodies (Bio-Rad, Hercules, CA, USA). An enhanced chemiluminescence kit (Bio-Rad, Hercules, CA, USA) was used. […] Total protein expression was quantified using the ImageJ software (http://rsb.info.nih.gov/ij/). […]

[4] = single treatment (4 nM PTX, 6 µM AM630, 10 µM others), untreated 18.9%
[5] = combination with 4 nM PTX, PTX alone 26.2%
[6] = single treatment (4 nM PTX, 6 µM AM630, 10 µM others), untreated 13.05%
[7] = NCI-N87, combination with 2 nM PTX, PTX alone 14.6%
[8] = NCI-N87, single treatment (2 nM PTX, 6 µM AM630, 10 µM others), untreated 6.35%
[9] = read-out: P-gp activity, EC50, ± SEM, MDCK-MDR1 cells, Calcein-AM
[10] = HGC27-S, representative flow cytometry chart, 48 h, 10 µM CC48, PTX, single or combined as labelled

Chain of P-gp (P08183 whole entry): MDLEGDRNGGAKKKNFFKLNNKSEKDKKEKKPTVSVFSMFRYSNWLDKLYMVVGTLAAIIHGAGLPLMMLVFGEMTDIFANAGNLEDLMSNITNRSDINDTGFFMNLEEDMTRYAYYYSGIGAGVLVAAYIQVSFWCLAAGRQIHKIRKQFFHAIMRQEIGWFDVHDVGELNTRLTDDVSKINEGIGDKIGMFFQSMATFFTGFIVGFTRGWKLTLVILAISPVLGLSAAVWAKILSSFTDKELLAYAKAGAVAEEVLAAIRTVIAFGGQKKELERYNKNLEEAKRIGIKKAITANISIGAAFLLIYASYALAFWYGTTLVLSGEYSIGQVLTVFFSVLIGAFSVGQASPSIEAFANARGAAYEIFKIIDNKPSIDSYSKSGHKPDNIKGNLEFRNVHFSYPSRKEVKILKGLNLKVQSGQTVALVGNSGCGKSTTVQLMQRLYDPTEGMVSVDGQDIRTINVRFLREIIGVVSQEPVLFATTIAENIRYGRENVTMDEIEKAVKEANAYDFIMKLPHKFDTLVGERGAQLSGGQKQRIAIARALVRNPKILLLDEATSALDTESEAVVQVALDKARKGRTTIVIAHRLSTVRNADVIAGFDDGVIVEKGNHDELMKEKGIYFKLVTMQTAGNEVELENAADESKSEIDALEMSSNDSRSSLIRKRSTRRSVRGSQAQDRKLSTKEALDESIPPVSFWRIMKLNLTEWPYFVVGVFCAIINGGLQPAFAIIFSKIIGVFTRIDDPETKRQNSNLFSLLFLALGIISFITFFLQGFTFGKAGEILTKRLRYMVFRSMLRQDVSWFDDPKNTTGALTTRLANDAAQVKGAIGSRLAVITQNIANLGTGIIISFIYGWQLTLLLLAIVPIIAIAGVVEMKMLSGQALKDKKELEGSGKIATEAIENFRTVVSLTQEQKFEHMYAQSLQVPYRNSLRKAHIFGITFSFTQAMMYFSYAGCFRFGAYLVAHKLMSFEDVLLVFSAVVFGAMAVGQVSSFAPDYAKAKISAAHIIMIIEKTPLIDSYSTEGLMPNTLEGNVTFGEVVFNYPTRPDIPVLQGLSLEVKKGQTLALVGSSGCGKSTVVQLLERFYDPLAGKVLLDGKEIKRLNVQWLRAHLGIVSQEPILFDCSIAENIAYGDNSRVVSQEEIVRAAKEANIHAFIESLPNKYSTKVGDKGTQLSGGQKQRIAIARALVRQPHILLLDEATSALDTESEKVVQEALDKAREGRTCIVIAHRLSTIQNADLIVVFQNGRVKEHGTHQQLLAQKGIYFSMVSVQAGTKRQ

Row | Compound | Ki (CB2R) [nM] | apoptotic cells (caspase 3/7 activation) (HGC27-R cells; combination with 4 nM PTX) [%] | apoptotic cells (caspase 3/7 activation) (HGC27-R cells; [4]) [%] | apoptotic cells (caspase 3/7 activation) (HGC27-S cells [1]; [5]) | apoptotic cells (caspase 3/7 activation) (HGC27-S cells [1]; [6]) | cells with activated caspase 3/7 (NCI-N87 cells; [7]) [%] | cells with activated caspase 3/7 (NCI-N87 cells; [8]) [%] | percentage of Ki67+ cells (HGC27-S cells [2]) [%] | interaction with P-gp (in words) (P-gp; MDCK-MDR1 cells, Calcein-AM) | EC50 (P-gp; [9]) [nM] | expression/activation of PI3K/Akt/mTOR and ERK1/2 pathway proteins (western blot) (HGC27-S cells [3]) | dead cells (HGC27-S cells [1]; single treatment, untreated 6.6%) | dead cells (NCI-N87 cells; NCI-N87, single treatment, control 5.8% / 5.6%) [%] | percentage of Ki67+ cells (HGC27-S cells [2]; HGC27-S, 48 h, combination with 4 nM PTX (10 µM compound; 6 µM AM630), PTX alone 58.1%) [%] | percentage of Ki67+ cells (HGC27-S cells [2]; HGC27-S, 48 h, single treatment (10 µM CC48; 4 nM PTX), control 80.50%) [%] | Ki67(+) cells (HGC27-S cells [2]; [10]) [%] | Ki67(-) cells (HGC27-S cells [2]; [10]) [%] | EC50 (P-gp) [nM]
1 | COc1ccc(C(=O)c2c(C)n(CCN3CCOCC3)c3cc(I)ccc23)cc1 [AM630, reference compound] | 31.2 | 62.4 | 32.9 | 44.3% | only a slight increase | 15.9 | 9.5 | 40.1 | low interaction with the pump | 16800 ± 3200 | significant decrease in PI3K protein expression | – | – | – | – | – | – | –
2 | CCCCCNc1ccccc1C(=O)NC12CC3CC(CC(C3)C1)C2 [ASF151] | 55.7 ± 10.2 | 50.4 | 42 | no further increase over PTX | 20.25% | 15.9 | 9.5 | 38.6 | excluded interaction with P-gp | > 100000 | no effect was detected | – | – | – | – | – | – | –
3 | O=C(NC12CC3CC(CC(C3)C1)C2)c1ccccc1OCc1ccccc1 [CC48] | 14.8 ± 4.49 | 61.4 | 33.8 | 62.7% | 21% | 23.3 | 17.4 | – | moderate interaction with P-gp | – | significant decrease in PI3K protein expression | without affecting the number of dead cells | 10.4 | 42.3 | 75.75 | 75.75 | 24.25 | 7750 ± 1250
